Results on 3 compounds are retold here after US5968791A, “Plant lysophosphatidic acid acyltransferases” (Calgene, Inc., priority 1995, dated 1999).

One assay has as its system bay LPAAT. The assay is described as follows: LPAAT activity assay, California bay P2 membrane preparation. The format is biochemical, Umbellularia californica. Particulars: P2 membrane preparation; acyl-CoA donor varied, acceptor 12:0-LPA.
The test system of another assay is Rapeseed LPAAT. The assay is described as follows: LPAAT activity assay, rapeseed P2 membrane preparation. The format is biochemical, Brassica napus. Particulars: acyl-CoA donor varied, acceptor 12:0-LPA. The protocol:
(§1) To assay for LPAAT activity, the sample is incubated with lysophosphatidic acid (LPA) and acyl-coenzyme A (acyl-CoA) substrates in buffered solution. The acyl substituents of the two substrates are chosen to correspond with the specificity of the enzyme being measured. For example, to measure activity of an LPAAT having preference for medium-chain substrates, lauroyl-LPA (lauroyl-lysophosphatidic acid) and lauroyl-CoA may be used, to measure activity of an LPAAT preferring longer-chain acyl groups, oleoyl-LPA and oleoyl-CoA may be used, to measure activity of an LPAAT preferring very-long chain substrate, erucyl-LPA and erucyl-CoA may be used, and so on, depending upon the type of LPAAT to be tested. The acyl group of one substrate is radioactively labeled in order to detect the product formed. In the examples which follow the acyl substituent of the acyl-CoA substrate is radiolabeled with ^14 C in the carboxyl group. LPAAT activity results in transfer of this acyl group from the acyl-CoA "donor" substrate to the LPA "acceptor" substrate, converting the latter into the product, phosphatidic acid (PA). LPAAT activity is measured as the amount of radioactive product formed in a given assay time. The PA product is radioactive as a result of the transferred radiolabeled acyl group at the central carbon atom of the molecule, and the quantity of PA formed may be determined by measuring radioactivity of the PA fraction. For this measurement, the PA is first separated from the acyl-CoA substrate by solvent partitioning, or by thin-layer chromatography (TLC).
(§2) 20 μl of the sample to be assayed for LPAAT activity is mixed with 217.5 μl of an assay ingredient mixture in a 4-ml, screw-cap vial. […] The incubation takes place in a water bath at 30° C., for 20-30 minutes.
(§3) To stop the assay, 0.25 ml of 1M KCl in 0.2M H3 PO4 is added to the vial. At this point, 40 μl BSA (bovine serum albumin, fraction V) at 1 mg/ml are added, followed by 0.75 ml of a solution of 67 μg/ml unlabeled PA (acting as a "carrier" to facilitate partitioning) in chloroform/methanol (2:1, v/v). The chain lengths of the PA acyl groups are chosen to correspond to those used in the assay substrates. Upon thorough mixing of these components the radiolabeled PA product of the LPAAT reaction partitions into the organic phase and away from the unreacted acyl-CoA and LPA. The vial is centrifuged briefly at low speed to facilitate the separation of organic (lower) and aqueous (upper) phases. The aqueous phase is then removed and discarded. The total radioactivity extracted into the organic phase is determined by liquid scintillation counting; a 100 μl sample of the organic phase is transferred to a 20 ml scintillation vial and allowed to dry, and scintillation fluid (3-5 ml) is added to the vial. The radioactivity of the sample, after subtraction of the "minus-enzyme" or "minus-LPA" radioactivities, is taken as an approximate indication of the amount of PA formed in the LPAAT-catalyzed reaction and therefore of LPAAT activity.
A more accurate estimation of the LPAAT activity may be obtained by separating the PA product from these contaminants by TLC. The remaining organic phase is applied to a silica TLC plate. […] After the plate has dried, the distribution of radioactivity is visualized and quantitated using an AMBIS radioanalytic imaging system (AMBIS Systems Inc., San Diego, Calif.). From prior application of standard lipid components the Rf of the PA is known. The radioactivity associated with the PA spot is expressed as a percentage of the total radioactivity of the assay sample loaded on the plate. This ratio provides an indication of the proportion of the scintillation counts which represent the PA product, and may be used to correct the counts to obtain the total PA radioactivity formed in the assay.
A P2 membrane homogenate from immature embryos of developing rapeseed (Brassica napus) seeds is prepared essentially as described above, except as noted below.

In assay [1] the target is T1, LPAAT of transformant 5511-5 (Cocos nucifera, UniProt Q42670).
T1 construct: crude P2 membranes, host LPAAT also present
T1 sequence (Q42670 1-308): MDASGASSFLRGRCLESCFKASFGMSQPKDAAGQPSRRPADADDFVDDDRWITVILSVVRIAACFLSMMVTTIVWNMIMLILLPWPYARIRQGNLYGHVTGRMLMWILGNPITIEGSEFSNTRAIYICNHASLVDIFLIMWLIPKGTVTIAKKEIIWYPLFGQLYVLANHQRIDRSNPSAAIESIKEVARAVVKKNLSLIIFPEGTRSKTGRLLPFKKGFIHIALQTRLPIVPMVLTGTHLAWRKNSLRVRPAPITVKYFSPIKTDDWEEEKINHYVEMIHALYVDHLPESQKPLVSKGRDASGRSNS
Description: LPAAT acyl-CoA specificity, P2 preparation of LPAAT-transformed line 5511-5. The format is biochemical, Rapeseed. To be noted: acyl-CoA donor varied at 5 μM, acceptor 12:0-LPA; 30 minute reaction. The protocol:
(§4) Detailed acyl-CoA chain-length specificity analysis of control P2 preparations and LPAAT-transformed line 5511-5 were determined as described above, using the original 30 minute reaction time. The acyl-CoA substrates for this analysis are present in methanol, and thus the assay also had the following modifications. The first solution placed in the assay vial was the volume of each radiolabeled acyl-CoA required for 5 μM final assay concentration. […] After mixing to redissolve the acyl-CoA off the vial wall, the reaction is started by addition of 25 μl of a 5-fold diluted P2 preparation and continued as before. Acyl-CoA substrates used in this analysis were 8:0, 10:0, 12:0, 14:0, 16:0, 18:0, and 18:1. The acceptor substrate in these assays was 12:0-LPA.

In the next assay the test system is control rapeseed LPAAT. Description: LPAAT acyl-CoA specificity, control P2 preparation. The format is biochemical. To be noted: acyl-CoA donor varied at 5 μM, acceptor 12:0-LPA; 30 minute reaction. The protocol: as §4
The target in assay [2] is T2, coconut LPAAT (Cocos nucifera, UniProt Q42670).
T2 sequence (Q42670 1-308): T1 sequence (Q42670 1-308)
The assay is described as follows: Acyl-CoA specificity of coconut LPAAT expressed in E. coli (pCGN5505), membrane fractions. The assay is classed as biochemical. More on the design: the SalI/BamHI fragment of pCGN5504 containing the entire coconut LPAAT encoding region; made in house; host or cells: E. coli BL21(DE3), membrane fractions. To be noted: acceptor 12:0-LPA. The protocol:
The samples are centrifuged at 12,000 g for 15 minutes. The resulting supernatant fractions are centrifuged for two hours at 134,000 g, and the pelleted membranes suspended in 50 mM HEPES, 200 mM NaCl, 20% (w/v) glycerol, 5 mM β-mercaptoethanol, pH 7.5. Membrane fractions are assayed for acyl-CoA substrate specificities with 12:0-LPA and various acyl-CoA species as described in Example 1. Membrane preparations from cultures of E. coli and from immature coconut endosperm are combined with soybean phospholipids and diluted in 1M NaCl in Buffer A to simulate the pre-assay conditions of the solubilized enzyme.

For assay [3], the target named is T2, coconut LPAAT. Description: LPAAT activity assay, coconut P2 membrane preparation. The format is biochemical. More on the design: white endosperm tissue lining the inside of the endocarp can be dissected and collected; from tissue; host or cells: immature coconut endosperm, P2 membrane fraction. The protocol:
as §1, §2, §3
A more accurate estimation of the LPAAT activity may be obtained by separating the PA product from these contaminants by TLC. The remaining organic phase is applied to a silica TLC plate. Ascending chromatography is carried out for 50 minutes, using the solvent mixture chloroform/pyridine/88% formic acid (50:30:7, v/v). After the plate has dried, the distribution of radioactivity is visualized and quantitated using an AMBIS radioanalytic imaging system (AMBIS Systems Inc., San Diego, Calif.). From prior application of standard lipid components the Rf of the PA is known. The radioactivity associated with the PA spot is expressed as a percentage of the total radioactivity of the assay sample loaded on the plate. This ratio provides an indication of the proportion of the scintillation counts which represent the PA product, and may be used to correct the counts to obtain the total PA radioactivity formed in the assay. […]

Assay [4] concerns coconut LPAAT. Described as above. The format is biochemical, Cocos nucifera. To be noted: coconut P2 preparation, same assay. The protocol:
To assay for LPAAT activity, the sample is incubated with lysophosphatidic acid (LPA) and acyl-coenzyme A (acyl-CoA) substrates in buffered solution. The acyl substituents of the two substrates are chosen to correspond with the specificity of the enzyme being measured. […] LPAAT activity is measured as the amount of radioactive product formed in a given assay time. The PA product is radioactive as a result of the transferred radiolabeled acyl group at the central carbon atom of the molecule, and the quantity of PA formed may be determined by measuring radioactivity of the PA fraction. […]
To stop the assay, 0.25 ml of 1M KCl in 0.2M H3 PO4 is added to the vial. […] The total radioactivity extracted into the organic phase is determined by liquid scintillation counting; a 100 μl sample of the organic phase is transferred to a 20 ml scintillation vial and allowed to dry, and scintillation fluid (3-5 ml) is added to the vial. The radioactivity of the sample, after subtraction of the "minus-enzyme" or "minus-LPA" radioactivities, is taken as an approximate indication of the amount of PA formed in the LPAAT-catalyzed reaction and therefore of LPAAT activity. […]

In another assay the test system is LPCAT. Description: LPCAT assay, coconut P2 preparation. The assay is classed as biochemical, Cocos nucifera. To be noted: substrates 12:0-CoA+12:0-LPC. From the text:
Lysophosphatidylcholine (LPC) acyltransferase (LPCAT) is an enzyme analogous to LPAAT, involved in the biosynthesis of membrane lipids (phosphatidylcholine and derivatives thereof) instead of storage oil. The possibility that the activity measured in the LPAAT assay is not true LPAAT, but rather an inefficient action of LPCAT on the LPAAT substrates, can be tested by direct assay for LPCAT. For example, the LPAAT activity of the coconut P2 preparation with the substrate combination 12:0-CoA+12:0-LPA is readily measurable, whereas the LPCAT activity of the same preparation with the substrates 12:0-CoA+12:0-LPC is undetectable. […] The activities on long-chain substrates may represent either a single acyltransferase enzyme able to use LPA and LPC acceptor substrates, or discrete "long-chain" LPAAT and LPCAT enzymes which are present together.

Description for bay LPAAT: To assay for LPAAT activity, the sample is incubated with lysophosphatidic acid (LPA) and acyl-coenzyme A (acyl-CoA) substrates in buffered solution. The acyl substituents of the two substrates are chosen to correspond with the specificity of the enzyme being measured. […] The acyl group of one substrate is radioactively labeled in order to detect the product formed. In the examples which follow the acyl substituent of the acyl-CoA substrate is radiolabeled with ^14 C in the carboxyl group. LPAAT activity results in transfer of this acyl group from the acyl-CoA "donor" substrate to the LPA "acceptor" substrate, converting the latter into the product, phosphatidic acid (PA). LPAAT activity is measured as the amount of radioactive product formed in a given assay time. The PA product is radioactive as a result of the transferred radiolabeled acyl group at the central carbon atom of the molecule, and the quantity of PA formed may be determined by measuring radioactivity of the PA fraction. For this measurement, the PA is first separated from the acyl-CoA substrate by solvent partitioning, or by thin-layer chromatography (TLC).

As for `CCCCCCCCCCCCCCCCCC(=O)SCCNC(=O)CCNC(=O)[C@H](O)C(C)(C)COP(=O)(O)OP(=O)(O)OC[C@H]1O[C@@H](n2cnc3c(N)ncnc32)[C@H](O)[C@@H]1OP(=O)(O)O` [18:0], in the assay on bay LPAAT, the “LPAAT Activity from Bay” value is recorded as 6 pmol PA formed/30 min assay. Besides, the “LPAAT Activity from Rapeseed” value with Rapeseed LPAAT was 21 pmol PA formed/30 min assay. For the same compound, the “Cpm PA Product, 5511-5” value in assay [1] worked out at 2038 Cpm. Besides, the “Cpm PA Product, Control” value in the assay on control rapeseed LPAAT is given as 1514 Cpm. On coconut LPAAT [2], the “utilization by E. coli expressed coconut LPAAT” value is on record as “less well utilized”. The “LPAAT Activity from Coconut” value on coconut LPAAT [3] (P2 membrane preparation, acyl-CoA donor varied, acceptor 12:0-LPA) was 13 pmol PA formed/30 min assay.

With “12:0-ACP: 12:0 acyl-ACP tested as LPAAT donor substrate”, in the assay on coconut LPAAT [4], the “hydrolysis by the P2 preparation” value was “not hydrolyzed”. Also, in the assay with coconut LPAAT [3] (coconut P2 preparation), the “utilization as LPAAT donor substrate instead of 12:0-CoA” value is given as “will not utilize”.

With `CCCCCCCCCCCC(=O)OCC(O)COP(=O)([O-])OCC[N+](C)(C)C` (stereo not drawn) [12:0-LPC, lauroyl-lysophosphatidylcholine], in the assay with LPCAT, the LPCAT activity result is “undetectable”.
